Measurements: US11236060B2, “Method for producing solid dispersion containing nobiletin” (KAO CORPORATION, priority 2018, dated 2022)

Assay: Solubility in 25° C. water of the poorly water-soluble substance
Format: physicochemical
Conditions: poorly water-soluble substance itself (ingredient)

Solubility in 25° C. water [ppm]	SMILES
1	COc1ccc(-c2cc(=O)c3c(OC)c(OC)c(OC)c(OC)c3o2)cc1OC [Nobiletin, 3′,4′,5,6,7,8-hexamethoxyflavone]
4	O=c1oc2c(O)c(O)cc3c(=O)oc4c(O)c(O)cc1c4c23 [Ellagic acid, ellagic acid]
